Tests used:
Test in all cases: Kinase Hotspot radiolabel assay
Type in all cases: biochemical
Conditions in all cases: read-out: % Residual Activity
MYO3b = target: T1, MYO3b (Homo sapiens, UniProt Q8WXR4)
T1 construct: purchased Reaction Biology Corporation (Kinase HotSpot)
Summary of the method: (§1)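 Specificity was assessed across 369 kinases in a radioactive Hotspot assay, testing one compound concentration (1 µM). For any kinase inhibited above 90%, a Ki value was subsequently obtained.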

MLCK2/MYLK2 = target: T2, MLCK2/MYLK2 (Homo sapiens, UniProt Q9H1R3)
T2 construct: purchased Reaction Biology Corporation (Kinase HotSpot)
Summary of the method: as §1

GCK/MAP4K2 = target: T3, GCK/MAP4K2 (Homo sapiens, UniProt Q12851)
T3 construct: purchased Reaction Biology Corporation (Kinase HotSpot)
Summary of the method: as §1

TESK1 = target: T4, TESK1 (Homo sapiens, UniProt Q15569)
T4 construct: purchased Reaction Biology Corporation (Kinase HotSpot)
Summary of the method: as §1

COT1/MAP3K8 = target: T5, COT1/MAP3K8 (Homo sapiens, UniProt P41279)
T5 construct: purchased Reaction Biology Corporation (Kinase HotSpot)
Summary of the method: as §1

ULK3 = target: T6, ULK3 (Homo sapiens, UniProt Q6PHR2)
T6 construct: purchased Reaction Biology Corporation (Kinase HotSpot)
Summary of the method: as §1

RON/MST1R = target: T7, RON/MST1R (Homo sapiens, UniProt Q04912)
T7 construct: purchased Reaction Biology Corporation (Kinase HotSpot)
Summary of the method: as §1

TTBK1 = target: T8, TTBK1 (Homo sapiens, UniProt Q5TCY1)
T8 construct: purchased Reaction Biology Corporation (Kinase HotSpot)
Summary of the method: as §1

MAPKAPK2 = target: T9, MAPKAPK2 (Homo sapiens, UniProt P49137)
T9 construct: purchased Reaction Biology Corporation (Kinase HotSpot)
Summary of the method: as §1

PLK4/SAK = target: T10, PLK4/SAK (Homo sapiens, UniProt O00444)
T10 construct: purchased Reaction Biology Corporation (Kinase HotSpot)
Summary of the method: as §1

RSK1 = target: T11, RSK1 (Homo sapiens, UniProt Q15418)
T11 construct: purchased Reaction Biology Corporation (Kinase HotSpot)
Summary of the method: as §1

MSSK1/STK23 = target: T12, MSSK1/STK23 (Homo sapiens, UniProt Q9UPE1)
T12 construct: purchased Reaction Biology Corporation (Kinase HotSpot)
Summary of the method: as §1

BRAF = target: T13, BRAF (Homo sapiens, UniProt P15056)
T13 construct: purchased Reaction Biology Corporation (Kinase HotSpot)
Summary of the method: as §1

PKN1/PRK1 = target: T14, PKN1/PRK1 (Homo sapiens, UniProt Q16512)
T14 construct: purchased Reaction Biology Corporation (Kinase HotSpot)
Summary of the method: as §1

CK1g2 = target: T15, CK1g2 (Homo sapiens, UniProt P78368)
T15 construct: purchased Reaction Biology Corporation (Kinase HotSpot)
Summary of the method: as §1

DYRK2 = target: T16, DYRK2 (Homo sapiens, UniProt Q92630)
T16 construct: purchased Reaction Biology Corporation (Kinase HotSpot)
Summary of the method: as §1

MAK = target: T17, MAK (Homo sapiens, UniProt P20794)
T17 construct: purchased Reaction Biology Corporation (Kinase HotSpot)
Summary of the method: as §1

BRSK2 = target: T18, BRSK2 (Homo sapiens, UniProt Q8IWQ3)
T18 construct: purchased Reaction Biology Corporation (Kinase HotSpot)
Summary of the method: as §1

HGK/MAP4K4 = target: T19, HGK/MAP4K4 (Homo sapiens, UniProt O95819)
T19 construct: purchased Reaction Biology Corporation (Kinase HotSpot)
Summary of the method: as §1

TTBK2 = target: T20, TTBK2 (Homo sapiens, UniProt Q6IQ55)
T20 construct: purchased Reaction Biology Corporation (Kinase HotSpot)
Summary of the method: as §1

EPHA2 = target: T21, EPHA2 (Homo sapiens, UniProt P29317)
T21 construct: purchased Reaction Biology Corporation (Kinase HotSpot)
Summary of the method: as §1

PKD2/PRKD2 = target: T22, PKD2/PRKD2 (Homo sapiens, UniProt Q9BZL6)
T22 construct: purchased Reaction Biology Corporation (Kinase HotSpot)
Summary of the method: as §1

JNK2 = target: T23, JNK2 (Homo sapiens, UniProt P45984)
T23 construct: purchased Reaction Biology Corporation (Kinase HotSpot)
Summary of the method: as §1

CAMK1g = target: T24, CAMK1g (Homo sapiens, UniProt Q96NX5)
T24 construct: purchased Reaction Biology Corporation (Kinase HotSpot)
Summary of the method: as §1

NEK7 = target: T25, NEK7 (Homo sapiens, UniProt Q8TDX7)
T25 construct: purchased Reaction Biology Corporation (Kinase HotSpot)
Summary of the method: as §1

TAOK2/TAO1 = target: T26, TAOK2/TAO1 (Homo sapiens, UniProt Q9UL54)
T26 construct: purchased Reaction Biology Corporation (Kinase HotSpot)
Summary of the method: as §1

CAMK1a = target: T27, CAMK1a (Homo sapiens, UniProt Q14012)
T27 construct: purchased Reaction Biology Corporation (Kinase HotSpot)
Summary of the method: as §1

PIM1 = target: T28, PIM1 (Homo sapiens, UniProt P11309)
T28 construct: purchased Reaction Biology Corporation (Kinase HotSpot)
Summary of the method: as §1

PHKg2 = target: T29, PHKg2 (Homo sapiens, UniProt P15735)
T29 construct: purchased Reaction Biology Corporation (Kinase HotSpot)
Summary of the method: as §1

KSR2 = target: T30, KSR2 (Homo sapiens, UniProt Q6VAB6)
T30 construct: purchased Reaction Biology Corporation (Kinase HotSpot)
Summary of the method: as §1

T26 sequence (Q9UL54 whole entry): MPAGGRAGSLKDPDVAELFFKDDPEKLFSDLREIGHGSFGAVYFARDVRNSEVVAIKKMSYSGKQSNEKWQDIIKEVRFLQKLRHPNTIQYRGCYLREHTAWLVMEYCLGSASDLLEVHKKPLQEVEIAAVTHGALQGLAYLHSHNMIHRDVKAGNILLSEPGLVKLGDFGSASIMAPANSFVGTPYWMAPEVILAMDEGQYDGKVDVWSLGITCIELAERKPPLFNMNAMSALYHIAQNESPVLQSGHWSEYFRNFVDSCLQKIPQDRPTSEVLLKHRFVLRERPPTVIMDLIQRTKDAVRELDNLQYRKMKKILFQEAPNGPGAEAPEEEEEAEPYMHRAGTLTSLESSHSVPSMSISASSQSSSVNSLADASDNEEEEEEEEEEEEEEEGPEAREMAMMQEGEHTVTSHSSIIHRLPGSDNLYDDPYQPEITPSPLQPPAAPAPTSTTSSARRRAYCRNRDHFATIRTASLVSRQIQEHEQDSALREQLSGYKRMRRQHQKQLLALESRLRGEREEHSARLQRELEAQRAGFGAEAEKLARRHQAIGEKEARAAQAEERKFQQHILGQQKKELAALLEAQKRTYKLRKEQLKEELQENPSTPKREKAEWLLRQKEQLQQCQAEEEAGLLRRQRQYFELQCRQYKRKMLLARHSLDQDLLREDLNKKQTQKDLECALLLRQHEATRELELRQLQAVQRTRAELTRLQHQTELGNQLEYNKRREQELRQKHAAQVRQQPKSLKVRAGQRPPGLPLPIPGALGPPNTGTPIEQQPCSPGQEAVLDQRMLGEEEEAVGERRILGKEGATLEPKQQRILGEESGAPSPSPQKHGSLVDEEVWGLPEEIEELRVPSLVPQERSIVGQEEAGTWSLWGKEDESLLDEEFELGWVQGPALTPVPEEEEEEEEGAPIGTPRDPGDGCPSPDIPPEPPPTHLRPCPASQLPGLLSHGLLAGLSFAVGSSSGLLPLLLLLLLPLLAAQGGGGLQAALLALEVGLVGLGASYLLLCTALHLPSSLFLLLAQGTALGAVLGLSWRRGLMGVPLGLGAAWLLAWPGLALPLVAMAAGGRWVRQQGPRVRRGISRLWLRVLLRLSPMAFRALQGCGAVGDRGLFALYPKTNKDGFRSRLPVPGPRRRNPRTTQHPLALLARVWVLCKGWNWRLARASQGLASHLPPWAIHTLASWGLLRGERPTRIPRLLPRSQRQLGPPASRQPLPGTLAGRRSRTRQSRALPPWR
T12 sequence (Q9UPE1 whole entry): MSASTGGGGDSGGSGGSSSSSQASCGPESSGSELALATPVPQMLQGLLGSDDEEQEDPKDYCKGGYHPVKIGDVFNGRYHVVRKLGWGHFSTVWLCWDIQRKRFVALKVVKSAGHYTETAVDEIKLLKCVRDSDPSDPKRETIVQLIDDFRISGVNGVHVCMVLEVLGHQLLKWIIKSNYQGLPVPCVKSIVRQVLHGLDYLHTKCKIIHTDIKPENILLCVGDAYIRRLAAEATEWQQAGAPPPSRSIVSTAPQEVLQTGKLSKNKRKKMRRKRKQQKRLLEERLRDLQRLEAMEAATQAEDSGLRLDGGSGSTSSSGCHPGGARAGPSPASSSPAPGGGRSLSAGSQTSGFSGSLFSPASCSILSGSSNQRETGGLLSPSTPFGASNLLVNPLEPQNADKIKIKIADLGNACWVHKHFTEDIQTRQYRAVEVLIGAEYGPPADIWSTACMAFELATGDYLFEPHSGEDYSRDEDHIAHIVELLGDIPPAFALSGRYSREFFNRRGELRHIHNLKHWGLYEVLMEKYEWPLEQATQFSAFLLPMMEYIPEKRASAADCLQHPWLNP
T11 sequence (Q15418 whole entry): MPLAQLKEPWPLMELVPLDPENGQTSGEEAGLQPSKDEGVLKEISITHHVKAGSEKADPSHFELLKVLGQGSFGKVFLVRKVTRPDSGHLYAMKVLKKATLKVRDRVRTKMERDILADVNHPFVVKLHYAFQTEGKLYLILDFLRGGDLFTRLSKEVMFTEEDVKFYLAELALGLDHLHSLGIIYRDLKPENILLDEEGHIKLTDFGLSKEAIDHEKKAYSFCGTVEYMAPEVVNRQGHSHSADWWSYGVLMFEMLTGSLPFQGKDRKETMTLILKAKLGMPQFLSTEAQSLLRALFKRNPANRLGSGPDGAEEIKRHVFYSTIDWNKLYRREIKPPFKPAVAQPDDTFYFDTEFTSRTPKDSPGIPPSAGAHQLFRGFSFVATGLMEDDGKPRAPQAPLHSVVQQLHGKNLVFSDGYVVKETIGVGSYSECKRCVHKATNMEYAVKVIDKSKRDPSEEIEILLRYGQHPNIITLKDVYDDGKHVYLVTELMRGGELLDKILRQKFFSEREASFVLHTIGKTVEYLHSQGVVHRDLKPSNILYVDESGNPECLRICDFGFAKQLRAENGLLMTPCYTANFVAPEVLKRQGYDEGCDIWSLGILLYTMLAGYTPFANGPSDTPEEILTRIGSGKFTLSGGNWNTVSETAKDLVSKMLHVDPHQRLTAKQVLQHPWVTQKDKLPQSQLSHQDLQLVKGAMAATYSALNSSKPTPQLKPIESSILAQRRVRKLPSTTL
T3 sequence (Q12851 whole entry): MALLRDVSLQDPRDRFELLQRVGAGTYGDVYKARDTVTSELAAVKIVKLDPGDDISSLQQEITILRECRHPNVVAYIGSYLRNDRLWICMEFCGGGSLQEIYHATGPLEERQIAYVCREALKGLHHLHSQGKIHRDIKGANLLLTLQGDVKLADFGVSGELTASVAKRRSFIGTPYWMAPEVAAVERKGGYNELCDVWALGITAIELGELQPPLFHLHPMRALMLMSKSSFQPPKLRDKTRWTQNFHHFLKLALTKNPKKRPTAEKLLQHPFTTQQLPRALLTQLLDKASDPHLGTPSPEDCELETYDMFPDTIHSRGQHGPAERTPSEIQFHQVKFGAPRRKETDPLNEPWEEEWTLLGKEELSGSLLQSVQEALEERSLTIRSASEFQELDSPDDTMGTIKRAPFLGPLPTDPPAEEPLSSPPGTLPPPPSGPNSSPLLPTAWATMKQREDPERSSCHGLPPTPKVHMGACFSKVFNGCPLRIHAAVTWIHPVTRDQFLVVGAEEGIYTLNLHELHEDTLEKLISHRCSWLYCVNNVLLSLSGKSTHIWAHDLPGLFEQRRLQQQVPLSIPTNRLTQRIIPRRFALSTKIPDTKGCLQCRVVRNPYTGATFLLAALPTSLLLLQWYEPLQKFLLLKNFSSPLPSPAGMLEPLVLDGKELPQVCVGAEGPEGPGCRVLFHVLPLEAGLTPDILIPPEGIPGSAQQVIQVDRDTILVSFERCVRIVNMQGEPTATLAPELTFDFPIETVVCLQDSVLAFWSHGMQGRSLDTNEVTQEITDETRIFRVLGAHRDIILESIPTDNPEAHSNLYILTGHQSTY
T5 sequence (P41279 whole entry): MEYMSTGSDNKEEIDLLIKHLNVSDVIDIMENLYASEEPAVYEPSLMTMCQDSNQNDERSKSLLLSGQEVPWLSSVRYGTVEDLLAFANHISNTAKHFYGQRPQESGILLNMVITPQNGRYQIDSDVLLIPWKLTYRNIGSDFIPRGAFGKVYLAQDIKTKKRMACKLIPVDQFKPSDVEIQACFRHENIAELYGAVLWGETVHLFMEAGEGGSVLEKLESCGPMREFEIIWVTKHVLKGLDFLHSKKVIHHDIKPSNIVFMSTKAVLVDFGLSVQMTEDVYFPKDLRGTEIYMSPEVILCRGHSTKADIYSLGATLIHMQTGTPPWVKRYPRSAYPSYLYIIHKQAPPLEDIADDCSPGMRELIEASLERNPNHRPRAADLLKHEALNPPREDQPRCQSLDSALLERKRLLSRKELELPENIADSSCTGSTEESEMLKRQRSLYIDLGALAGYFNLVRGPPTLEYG
T20 sequence (Q6IQ55 whole entry): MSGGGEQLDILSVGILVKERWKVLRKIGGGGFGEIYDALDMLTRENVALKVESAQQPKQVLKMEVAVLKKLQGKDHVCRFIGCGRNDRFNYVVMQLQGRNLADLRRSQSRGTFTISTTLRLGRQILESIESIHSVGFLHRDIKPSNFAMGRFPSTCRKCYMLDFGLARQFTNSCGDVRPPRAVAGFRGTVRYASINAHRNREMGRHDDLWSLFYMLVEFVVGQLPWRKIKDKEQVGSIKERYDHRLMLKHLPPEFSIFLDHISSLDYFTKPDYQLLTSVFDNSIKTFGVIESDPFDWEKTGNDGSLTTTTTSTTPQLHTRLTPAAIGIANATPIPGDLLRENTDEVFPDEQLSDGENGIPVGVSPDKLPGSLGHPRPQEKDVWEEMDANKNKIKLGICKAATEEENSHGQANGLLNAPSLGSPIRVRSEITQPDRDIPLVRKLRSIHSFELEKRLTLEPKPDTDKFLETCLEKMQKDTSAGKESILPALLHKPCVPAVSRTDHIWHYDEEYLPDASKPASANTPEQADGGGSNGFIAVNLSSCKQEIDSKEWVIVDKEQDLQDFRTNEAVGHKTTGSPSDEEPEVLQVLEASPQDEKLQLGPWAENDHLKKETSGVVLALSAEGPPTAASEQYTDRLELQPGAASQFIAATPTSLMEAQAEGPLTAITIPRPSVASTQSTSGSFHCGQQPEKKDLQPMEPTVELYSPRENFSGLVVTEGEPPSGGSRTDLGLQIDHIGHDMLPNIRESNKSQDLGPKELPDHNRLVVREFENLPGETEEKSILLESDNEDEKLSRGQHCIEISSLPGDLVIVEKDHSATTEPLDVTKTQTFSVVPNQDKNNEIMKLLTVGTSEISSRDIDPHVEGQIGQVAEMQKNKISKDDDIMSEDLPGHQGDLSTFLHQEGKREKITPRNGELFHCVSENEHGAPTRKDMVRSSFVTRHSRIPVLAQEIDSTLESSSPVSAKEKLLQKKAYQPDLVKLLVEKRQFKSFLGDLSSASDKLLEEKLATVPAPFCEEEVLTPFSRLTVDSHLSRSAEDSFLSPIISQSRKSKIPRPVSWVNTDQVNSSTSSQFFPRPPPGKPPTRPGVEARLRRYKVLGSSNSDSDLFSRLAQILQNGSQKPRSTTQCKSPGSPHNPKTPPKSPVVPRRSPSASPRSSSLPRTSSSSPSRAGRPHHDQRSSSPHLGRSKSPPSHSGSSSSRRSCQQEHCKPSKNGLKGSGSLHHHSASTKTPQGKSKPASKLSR

Cc1cnc(N[C@H]2CC[C@H](N)CC2)nc1-c1cnc2ccc(-c3ccccc3)cn12 [CDDD11-8]
remaining activity at 1 µM (MYO3b): 58.4% | remaining activity at 1 µM (MLCK2/MYLK2): 25.9% | remaining activity at 1 µM (GCK/MAP4K2): 24.8% | remaining activity at 1 µM (TESK1): 113% | remaining activity at 1 µM (COT1/MAP3K8): 101% | remaining activity at 1 µM (ULK3): 82.8% | remaining activity at 1 µM (RON/MST1R): 97.9% | remaining activity at 1 µM (TTBK1): 89.5% | remaining activity at 1 µM (MAPKAPK2): 106% | remaining activity at 1 µM (PLK4/SAK): 89.3% | remaining activity at 1 µM (RSK1): 56.9% | remaining activity at 1 µM (MSSK1/STK23): 90.8% | remaining activity at 1 µM (BRAF): 99.7% | remaining activity at 1 µM (PKN1/PRK1): 63.8% | remaining activity at 1 µM (CK1g2): 59.4% | remaining activity at 1 µM (DYRK2): 12.7% | remaining activity at 1 µM (MAK): 67.6% | remaining activity at 1 µM (BRSK2): 96.5% | remaining activity at 1 µM (HGK/MAP4K4): 32.8% | remaining activity at 1 µM (TTBK2): 93% | remaining activity at 1 µM (EPHA2): 86.4% | remaining activity at 1 µM (PKD2/PRKD2): 62.7% | remaining activity at 1 µM (JNK2): 103% | remaining activity at 1 µM (CAMK1g): 97.7% | remaining activity at 1 µM (NEK7): 102% | remaining activity at 1 µM (TAOK2/TAO1): 45% | remaining activity at 1 µM (CAMK1a): 80.7% | remaining activity at 1 µM (PIM1): 65% | remaining activity at 1 µM (PHKg2): 93.9% | remaining activity at 1 µM (KSR2): 101%
